These are literature values, as cited in patent publication US20040023969A1, “Combination of an allosteric alkyne inhibitor of matrix metalloproteinase-13 with celecoxib or valdecoxib” (priority 2002, published 2004).

Take `Cc1onc(-c2ccccc2)c1-c1ccc(S(N)(=O)=O)cc1` [valdecoxib, 4-(5-methyl-3-phenyl-4-isoxazolyl)-benzenesulfonamide]: the “Tolerability in clinical studies” value (combined analysis of various clinical studies) is “well tolerated”. Also, the “Overall upper gastrointestinal safety profile (ulcers, perforations, obstructions and GI bleeds)” value (compared with ibuprofen, diclofenac and naproxen) is reported as “significantly better than the conventional NSAIDs studied”.
